In patent publication US10723699B2 (Hyundai Pharm Co., Ltd., priority 2015, dated 2020):
Where two headings read alike, the source gives them in different places.

Target: T1, G protein-coupled receptor 119 (GPR-119) (Mesocricetus auratus, UniProt A0A1U8CD06)
T1 construct: hamster-derived β-cells containing G protein-coupled receptor 119 (GPR-119), HIT-T15 cells; host or cells: HIT-T15 (hamster pancreatic β-cells)
T1 sequence (A0A1U8CD06 1-334): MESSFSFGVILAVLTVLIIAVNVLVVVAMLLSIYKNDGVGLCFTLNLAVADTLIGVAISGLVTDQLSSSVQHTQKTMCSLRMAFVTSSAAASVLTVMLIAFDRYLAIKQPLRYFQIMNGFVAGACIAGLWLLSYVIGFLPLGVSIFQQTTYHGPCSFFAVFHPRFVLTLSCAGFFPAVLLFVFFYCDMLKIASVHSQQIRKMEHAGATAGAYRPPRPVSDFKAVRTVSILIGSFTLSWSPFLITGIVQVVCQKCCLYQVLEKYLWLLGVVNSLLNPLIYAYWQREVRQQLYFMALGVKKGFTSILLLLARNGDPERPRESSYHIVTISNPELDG
Assay: cAMP activity in HIT-T15 cells (cAMP dynamic kit, FRET)
Format: cell-based, hamster
Procedure, shortened: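 Hamster HIT-T15 cells (60,000/well) were treated next day with compound at six concentrations, 0.0032–10 μM, for 1 h at 37° C. Cells were then lysed and cAMP measured by competitive HTRF immunoassay (D2-cAMP, cryptate anti-cAMP). Activity was derived as the change in FRET signal relative to DMSO.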

[1] = 1 hour at 37° C., six concentrations 0.0032 to 10 μM, read-out: EC50

CCc1cnc(N2CCC(COc3ccc(C4=CCC(C(=O)N5CCC(CO)CC5)CC4)cc3C#N)CC2)nc1 (stereo not shown) [Example 391, 2-((1-(5-ethylpyrimidin-2-yl)piperidin-4-yl)methoxy)-5-(4-(4-(hydroxymethyl)piperidine-1-carbonyl)cyclohex-1-enyl)benzonitrile]
EC50 [1]: 27 nM
EC50 (Table 2, read-out: EC50 value): ≤ 50 nM

CCc1cnc(N2CCC(COc3ccc(C4=CCC(C(=O)N5CCN(C(=O)C=C(C)C)CC5)CC4)cc3)CC2)nc1 (stereo not shown) [Example 414, 1-(4-(4-(4-((1-(5-ethylpyrimidin-2-yl)piperidin-4-yl)methoxy)phenyl)cyclohex-3-enecarbonyl)piperazin-1-yl)-3-methylbut-2-en-1-one]
EC50 [1]: 27 nM
EC50 (Table 2, read-out: EC50 value): ≤ 50 nM

CC(C)c1noc(N2CCC(COc3ccc(C4=CCC(C(=O)N5CC(O)C5)CC4)cc3F)CC2)n1 (stereo not shown) [Example 334, (4-(3-fluoro-4-((1-(3-isopropyl-1,2,4-oxadiazol-5-yl)piperidin-4-yl)methoxy)phenyl)cyclohex-3-enyl)(3-hydroxyazetidin-1-yl)methanone]
EC50 [1]: 52 nM

CC(C)c1noc(N2CCC(COc3ccc(C4=CCC(C(=O)N5CCN(C6CC6)CC5)CC4)cc3F)CC2)n1 (stereo not shown) [Example 348, (4-cyclopropylpiperazin-1-yl)(4-(3-fluoro-4-((1-(3-isopropyl-1,2,4-oxadiazol-5-yl)piperidin-4-yl)methoxy)phenyl)cyclohex-3-enyl)methanone]
EC50 [1]: 14 nM
EC50 (Table 2, read-out: EC50 value): ≤ 50 nM

CC(C)(C)OC(=O)N1CCC(COc2ccc(C3=CCC(C(=O)N4CCOCC4)CC3)cc2F)CC1 (single isomer, unassigned; (-)) [Example 443, (−)-tert-butyl 4-((2-fluoro-4-(4-(morpholine-4-carbonyl)cyclohex-1-enyl)phenoxy)methyl)piperidine-1-carboxylate]
EC50 [1]: 38 nM

CC(C)(C)OC(=O)N1CCC(COc2ccc(C3=CCC(C(=O)N4CCCC4)CC3)cc2F)CC1 (stereo not shown) [Example 392, tert-butyl 4-((2-fluoro-4-(4-(pyrrolidine-1-carbonyl)cyclohex-1-enyl)phenoxy)methyl)piperidine-1-carboxylate]
EC50 [1]: 10 nM
EC50 (Table 2, read-out: EC50 value): ≤ 50 nM

CC(C)c1noc(N2CCC(COc3ccc(C4=CCC(C(=O)N5CCN(C6CC6)CC5)CC4)cc3F)CC2)n1 (stereo not shown) [Example 369, (4-cyclopropylpiperazin-1-yl)(4-(3-fluoro-4-((1-(3-isopropyl-1,2,4-oxadiazol-5-yl)piperidin-4-yl)methoxy)phenyl)cyclohex-3-enyl)methanone]
EC50 [1]: 9 nM

CC(C)(C)OC(=O)N1CCC(COc2ccc(C3=CCC(C(=O)N4CCOCC4)CC3)cc2F)CC1 (single isomer, unassigned; (+)) [Example 442, (+)-tert-butyl 4-((2-fluoro-4-(4-(morpholine-4-carbonyl)cyclohex-1-enyl)phenoxy)methyl)piperidine-1-carboxylate]
EC50 [1]: 8 nM
EC50 (Table 2, read-out: EC50 value): ≤ 50 nM

CCc1cnc(N2CCC(COc3ccc(C4=CCC(C(=O)N5CC[C@H](F)C5)CC4)cc3)CC2)nc1 (single isomer, unassigned; (-)) [Example 458]
EC50 [1]: 12 nM

CCc1cnc(N2CCC(COc3ccc(C4=CCC(C(=O)N5CCC(F)(F)C5)CC4)c(F)c3)CC2)nc1 (single isomer, unassigned; (-)) [Example 461, (−)-(3,3-difluoropyrrolidin-1-yl)(4-(4-((1-(5-ethylpyrimidin-2-yl)piperidin-4-yl)methoxy)-2-fluorophenyl)cyclohex-3-enyl)methanone]
EC50 [1]: 91 nM

CC(C)OC(=O)N1CCC(COc2ccc(C3=CCC(C(=O)N4CCOCC4)CC3)cc2F)CC1 (stereo not shown) [Example 444, isopropyl 4-((2-fluoro-4-(4-(morpholine-4-carbonyl)cyclohex-1-enyl)phenoxy)methyl)piperidine-1-carboxylate]
EC50 [1]: 26 nM
EC50 (Table 2, read-out: EC50 value): ≤ 50 nM

CC(C)c1noc(N2CCC(COc3ccc(C4=CCC(C(=O)N5CCC(=NO)CC5)CC4)cc3F)CC2)n1 (stereo not shown) [Example 411, (4-(3-fluoro-4-((1-(3-isopropyl-1,2,4-oxadiazol-5-yl)piperidin-4-yl)methoxy)phenyl)cyclohex-3-enyl)(4-(hydroxyimino)piperidin-1-yl)methanone]
EC50 [1]: 15 nM
EC50 (Table 2, read-out: EC50 value): ≤ 50 nM

CCc1cnc(N2CCC(COc3ccc(C4=CCC(C(=O)N5CCC[C@@H]5CO)CC4)c(F)c3)CC2)nc1 (stereo partly drawn) [Example 427, (4-(4-((1-(5-ethylpyrimidin-2-yl)piperidin-4-yl)methoxy)-2-fluorophenyl)cyclohex-3-enyl)((R)-2-(hydroxymethyl)pyrrolidin-1-yl)methanone]
EC50 [1]: 32 nM
EC50 (Table 2, read-out: EC50 value): ≤ 50 nM

CCc1cnc(N2CCC(COc3ccc(C4=CCC(C(=O)N5CC(F)(F)C(F)(F)C5)CC4)c(F)c3)CC2)nc1 (single isomer, unassigned; (-)) [Example 463, (−)-(4-(4-((1-(5-ethylpyrimidin-2-yl)piperidin-4-yl)methoxy)-2-fluorophenyl)cyclohex-3-enyl)(3,3,4,4-tetrafluoropyrrolidin-1-yl)methanone]
EC50 [1]: 88 nM

CC(C)c1noc(N2CCC(COc3ccc(C4=CCC(C(=O)N5CCNCC5)CC4)cc3F)CC2)n1 (stereo not shown) [Example 381, (4-(3-fluoro-4-((1-(3-isopropyl-1,2,4-oxadiazol-5-yl)piperidin-4-yl)methoxy)phenyl)cyclohex-3-enyl)(piperazin-1-yl)methanone]
EC50 [1]: 110 nM

CCc1cnc(N2CCC(COc3ccc(C4=CCC(C(=O)N5CCC[C@H]5CO)CC4)cc3)CC2)nc1 (single isomer, unassigned; (-)) [Example 465]
EC50 [1]: 110 nM

CC(C)c1noc(N2CCC(COc3ccc(C4=CCC(C(=O)N5CCC(N6CCCCC6)CC5)CC4)cc3F)CC2)n1 (stereo not shown) [Example 362, 1,4′-bipiperidin-1′-yl(4-(3-fluoro-4-((1-(3-isopropyl-1,2,4-oxadiazol-5-yl)piperidin-4-yl)methoxy)phenyl)cyclohex-3-enyl)methanone]
EC50 [1]: 180 nM

CCN1CCN(C(=O)C2CC=C(c3ccc(OCC4CCN(C(=O)OC(C)(C)C)CC4)cc3)CC2)CC1 (stereo not shown) [Example 203, tert-butyl 4-((4-(4-(4-ethylpiperazine-1-carbonyl)cyclohex-1-enyl)phenoxy)methyl)piperidine-1-carboxylate]
EC50 (Table 2, read-out: EC50 value): ≤ 50 nM

CCc1cnc(N2CCC(COc3ccc(C4=CCC(C(=O)N5CCCC5)CC4)cc3N)CC2)nc1 (stereo not shown) [Example 393, (4-(3-amino-4-((1-(5-ethylpyrimidin-2-yl)piperidin-4-yl)methoxy)phenyl)cyclohex-3-enyl)(pyrrolidin-1-yl)methanone]
EC50 [1]: 130 nM

CCc1cnc(N2CCC(COc3ccc(C4=CCC(C(=O)NCC(F)F)CC4)cc3F)CC2)nc1 (stereo not shown) [Example 314, N-(2,2-difluoroethyl)-4-(4-((1-(5-ethylpyrimidin-2-yl)piperidin-4-yl)methoxy)-3-fluorophenyl)cyclohex-3-enecarboxamide]
EC50 [1]: 61 nM

CCc1cnc(N2CCC(COc3ccc(C4=CCC(C(=O)NC5CC5)CC4)cc3F)CC2)nc1 (stereo not shown) [Example 302, N-cyclopropyl-4-(4-((1-(5-ethylpyrimidin-2-yl)piperidin-4-yl)methoxy)-3-fluorophenyl)cyclohex-3-enecarboxamide]
EC50 [1]: 110 nM

CCc1cnc(N2CCC(COc3ccc(C4=CCC(C(=O)N5CCOCC5)CC4)cc3C#N)CC2)nc1 (stereo not shown) [Example 388, 2-((1-(5-ethylpyrimidin-2-yl)piperidin-4-yl)methoxy)-5-(4-(morpholine-4-carbonyl)cyclohex-1-enyl)benzonitrile]
EC50 [1]: 51 nM

O=C(Oc1ccccc1)N1CCC(COc2ccc(C3=CCC(C(=O)N4CCCC4)CC3)cc2F)CC1 (stereo not shown) [Example 403, phenyl 4-((2-fluoro-4-(4-(pyrrolidine-1-carbonyl)cyclohex-1-enyl)phenoxy)methyl)piperidine-1-carboxylate]
EC50 [1]: 22 nM
EC50 (Table 2, read-out: EC50 value): ≤ 50 nM

CCN1CCN(C(=O)C2CC=C(c3ccc(OCC4CCN(c5nc(C(C)C)no5)CC4)c(F)c3)CC2)CC1 (stereo not shown) [Example 367, (4-ethylpiperazin-1-yl)(4-(3-fluoro-4-((1-(3-isopropyl-1,2,4-oxadiazol-5-yl)piperidin-4-yl)methoxy)phenyl)cyclohex-3-enyl)methanone]
EC50 [1]: 26 nM
EC50 (Table 2, read-out: EC50 value): ≤ 50 nM

CCc1cnc(N2CCC(COc3ccc(C4=CCC(C(=O)NCC(F)(F)F)CC4)cc3F)CC2)nc1 (stereo not shown) [Example 307, 4-(4-((1-(5-ethylpyrimidin-2-yl)piperidin-4-yl)methoxy)-3-fluorophenyl)-N-(2,2,2-trifluoroethyl)cyclohex-3-enecarboxamide]
EC50 [1]: 88 nM

CC(C)(C)OC(=O)N1CCC(COc2ccc(C3=CCC(C(=O)N4CCSCC4)CC3)nc2)CC1 (stereo not shown) [Example 328, tert-butyl 4-((6-(4-(thiomorpholine-4-carbonyl)cyclohex-1-enyl)pyridin-3-yloxy)methyl)piperidine-1-carboxylate]
EC50 [1]: 21 nM
EC50 (Table 2, read-out: EC50 value): ≤ 50 nM

CCc1cnc(N2CCC(COc3ccc(C4=CCC(C(=O)N5CCCC5)CC4)cc3C#N)CC2)nc1 (stereo not shown) [Example 386, 2-((1-(5-ethylpyrimidin-2-yl)piperidin-4-yl)methoxy)-5-(4-(pyrrolidine-1-carbonyl)cyclohex-1-enyl)benzonitrile]
EC50 [1]: 64 nM

CC(C)(C)OC(=O)N1CCC(COc2ccc(C3=CCC(C(=O)N4CCC(=NO)CC4)CC3)nc2)CC1 (stereo not shown) [Example 344, tert-butyl 4-((6-(4-(4-(hydroxyimino)piperidine-1-carbonyl)cyclohex-1-enyl)pyridin-3-yloxy)methyl)piperidine-1-carboxylate]
EC50 [1]: 45 nM
EC50 (Table 2, read-out: EC50 value): ≤ 50 nM
